Laboratory results as given in patent publication US20230127498A1, “TREATMENT OF RESPIRATORY DISORDERS” (Terns, Inc., priority 2020, published 2023).
Where a name gives a salt, the structure may show the parent alone. Read-outs that look alike come from different tables or passages of the source.

What was measured:
[1] = cited from earlier work
[2] = in vivo; cited from earlier work
[3] = test system: rhinovirus; details: mice sensitized with HDM, challenged with HDM and rhinovirus; cited from earlier work
[4] = molecular target: T1, SSAO (Homo sapiens, UniProt Q16853); assay: Single-ascending dose clinical trial: plasma SSAO activity (H2O2 generation); assay type: in vivo
T1 construct: from tissue; host or cells: human plasma (healthy volunteers)
T1 sequence (Q16853 27-763 limits assumed): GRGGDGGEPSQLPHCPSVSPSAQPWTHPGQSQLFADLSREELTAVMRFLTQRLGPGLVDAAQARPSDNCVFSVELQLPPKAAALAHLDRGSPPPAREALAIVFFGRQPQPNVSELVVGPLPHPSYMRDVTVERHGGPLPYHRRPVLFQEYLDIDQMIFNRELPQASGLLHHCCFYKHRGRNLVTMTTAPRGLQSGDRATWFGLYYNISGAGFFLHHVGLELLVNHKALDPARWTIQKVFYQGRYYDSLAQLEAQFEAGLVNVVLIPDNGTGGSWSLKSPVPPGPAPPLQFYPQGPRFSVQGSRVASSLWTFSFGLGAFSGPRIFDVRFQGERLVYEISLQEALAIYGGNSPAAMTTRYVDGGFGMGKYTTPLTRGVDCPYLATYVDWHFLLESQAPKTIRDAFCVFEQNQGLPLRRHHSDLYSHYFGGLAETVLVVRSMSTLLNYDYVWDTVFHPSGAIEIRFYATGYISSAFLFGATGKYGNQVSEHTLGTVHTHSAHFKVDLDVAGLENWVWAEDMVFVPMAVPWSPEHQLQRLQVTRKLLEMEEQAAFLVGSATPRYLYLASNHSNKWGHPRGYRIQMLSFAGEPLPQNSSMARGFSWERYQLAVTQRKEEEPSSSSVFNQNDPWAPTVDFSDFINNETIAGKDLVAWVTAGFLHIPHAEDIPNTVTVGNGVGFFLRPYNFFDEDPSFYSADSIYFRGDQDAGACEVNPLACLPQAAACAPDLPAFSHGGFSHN
Method: (§1) Safety was assessed for 7 (±3) days after dosing.
(§2) Plasma PK parameters were determined by non-compartmental analysis.
SSAO-specific amine oxidase levels in plasma were determined using a kinetic-based assay essentially as described previously (Schilter et al). Endogenous monoamine oxidases A and B were inhibited by adding pargyline to plasma samples prior to measuring H2O2 generation levels in placebo and active recipients.

[5] = test system: methylamine (MMA); assay: Single-ascending dose clinical trial: plasma methylamine (MMA) levels; assay type: in vivo, human
Method: as §1

[6] = Rat model of NASH; details: in vivo
[7] = test system: Influenza A virus, WSN/33 strain of H1N1; details: for Median survival time / Survival proportion / Prolonged survival time*: Formula 5 20 mg/kg QD, oseltamivir 5 mg/kg BID; for Prolonged survival time*: compared with vehicle group
[8] = mouse, in vivo; cited from earlier work
[9] = human, in vivo
Method: as §1, §2

[10] = Single-ascending dose clinical trial: safety, adverse events; assay type: in vivo, human
Method: as §1

## CC(C)(C)NC(=O)c1ccc(OC/C(=C/F)CN)cc1.Cl [BI 1467335]
[1]; by diminishing leukocyte rolling and adherence
  cytokine-induced cell migration: reduced
[1]; in vivo
  LPS-induced neutrophil lung migration: reduced
[2]
  airway infiltration of inflammatory immune cells: suppressed
  lung function: improved
  pulmonary fibrosis: reduced
[3]
  airway hyperreactivity: reduced
  inflammatory cellular infiltrates: reduced

## COC1CCN(c2ncc(OC/C(=C/F)CN)cn2)CC1 [Compound of Formula 5]
[4]; all dose cohorts, single dose
  inhibition of plasma SSAO activity at 4 hours post-dose: near complete inhibition
[4]; single dose
  duration of suppression of plasma SSAO activity after a single dose: up to 1 week
[4]; single doses, all subjects
  plasma amine oxidase activity: rapidly and potently decreased
[4]; single oral dose 1 mg to 10 mg
  duration of SSAO activity inhibition after a single dose: up to seven days
[5]; across the dose range, single dose
  plasma methylamine: Dose-dependent increases
[5]; after single doses
  duration of dose-dependent increases in plasma MMA: up to 1 week
[5]; single dose
  Maximum plasma MMA levels: increased
[6]
  liver fibrosis: decreases
  liver inflammation: decreases
[7]; […]
  Median survival time: 6 days
  Survival proportion: 0%
  Prolonged survival time*: 20%
[7]; monotherapy or in combination with oseltamivir
  exacerbation of viral replication or pathology: did not appear to exacerbate
[7]; prophylactic
  Prolonged survival time*: 20%

## CCOC(=O)C1=C[C@@H](OC(CC)CC)[C@H](NC(C)=O)[C@@H](N)C1 [Oseltamivir, oseltamivir, reference compound]
[7]; […]
  Median survival time: undefined
  Survival proportion: 100%
  Prolonged survival time*: undefined
[7]; prophylactic
  Prolonged survival time*: undefined

## NC/C(=C\F)COc1ccc(S(N)(=O)=O)cc1 [PXS-4681A]
[8]
  cytokine production: reduced
  effects relative to dexamethasone treatment: comparable
  leukocyte trafficking: reduced

## COC1CCN(c2ncc(OC/C(=C/F)CN)cn2)CC1 [toslyate salt of Formula 5]
[9]
  clearance from plasma: rapidly cleared from plasma
  plasma PK exposure dose proportionality: greater than dose proportional
[10]; All cohorts (n = 32)
  TEAE diagnosis and frequency: upper respiratory tract infection: 1 (3.1)
[10]; cohort 1, single oral dose 1 mg or placebo (n = 8)
  TEAE diagnosis and frequency: upper respiratory tract infection: 0
[10]; cohort 2, single oral dose 3 mg or placebo (n = 8)
  TEAE diagnosis and frequency: upper respiratory tract infection: 0
[10]; cohort 3, single oral dose 6 mg (n = 8)
  TEAE diagnosis and frequency: upper respiratory tract infection: 0
[10]; cohort 4, single oral dose 10 mg or placebo (n = 8)
  TEAE diagnosis and frequency: upper respiratory tract infection: 1 (12.5)
[10]; human, in vivo
  Subject incidence of TEAEs considered possibly treatment-related: 1 (3.1)
  Subject incidence of any TEAE: 5 (15.6)
  TEAE diagnosis and frequency: constipation: 1 (3.1)
  TEAE diagnosis and frequency: contact dermatitis: 2 (6.3)
  TEAE diagnosis and frequency: dysgeusia: 1 (3.1)
  TEAE diagnosis and frequency: headache: 1 (3.1)
  TEAE diagnosis and frequency: sore throat: 1 (3.1)
[10]; human, in vivo, po
  TEAE diagnosis and frequency: oral herpes: 1 (3.1)
